Patent publication US12053529B2, “Amino-reactive positively charged ATRP initiators that maintain their positive charge during synthesis of biomacro-initiators” (Carnegie Mellon University, priority 2018, dated 2024)
Starred links: 1 amine or outer side, 2 acyl side, 3 side chain; linkers in the order of their positions; H or OH if unused. Residues, ends and D or L forms follow the SMILES beside them. *: point of attachment. pNA = O=[N+]([O-])c1ccc(N*)cc1; Suc = O=C(CCC(=O)[*:2])[*:1]

Legend:
[1] = test system: T1, C[C@H](NC(=O)CCC(=O)O)C(=O)N[C@@H](C)C(=O)N1CCC[C@H]1C(=O)N[C@@H](Cc1ccccc1)C(=O)Nc1ccc([N+](=O)[O-])cc1; assay: Michaelis-Menten kinetics, Suc-AAPF-pNA hydrolysis, native CT; type: biochemical, bovine; settings: other: pH 8, 37° C.
T1 construct: mature A, B and C chains of chymotrypsinogen A; unmodified
Procedure: (§1) CT and Lysozyme were used as received. AChE and Uricase were dialyzed in 25 mM sodium phosphate (pH 7.0) using a 25 kDa molecular weight cutoff dialysis tube in a refrigerator for 24 hours and then lyophilized. Copper (II) chloride, sodium ascorbate, 1,1,4,7,10,10-hexamethyltriethylenetetramine (HMTETA), 2-bromo-2-methylpropionyl bromide, 3-(dimethylamino)-1-propylamine, N,N′-diisopropylcarbodimine, fluorescamine, acetylthiocholine iodide, 5,5′-dithiobis(2-nitrobenzoic acid) (DTNB) were purchased from Sigma Aldrich. 4-bromobutyric acid and N-hydroxysuccinimide were purchased from TCI USA (Portland, OR). Micro BCA assay kit was purchased from Thermo Fisher Scientific.
(§2) CT: N-succinyl-Ala-Ala-Pro-Phe-p-nitroanilide (Suc-AAPF-pNA; SEQ ID NO:1) was used as a substrate for CT. Substrate (0-20 mg/mL in DMSO, 30 μL) was added to a 1.5 mL cuvette with sodium phosphate buffer (pH 8, 100 mM). Native CT, CT-initiators, and CT-polymers (0.1 mg/mL protein, 4 μM, 10 μL) was added to the cuvette with substrate and buffer. The initial substrate hydrolysis rate was measured in triplicate by recording the increase in absorbance at 412 nm over the first 60 seconds after mixing using a Lambda 2 Perkin Elmer ultraviolet-visible spectrometer equipped with a temperature-controlled cell holder at 37° C. Michaelis-Menten parameters were determined using nonlinear curve fitting of initial hydrolysis rate versus substrate concentration in GraphPad.
Michaelis-Menten kinetics were measured at pH 8 and 37° C. using Succinyl-Ala-Ala-Pro-Phe-p-nitroanilide (Suc-AAPF-pNA; SEQ ID NO:1), a hydrophobic and negatively charged substrate for CT that binds to the hydrophobic S1 binding pocket and is then cleaved by the catalytic triad (Ser 195, His 57, Asp 102). […] The observed decrease in KM upon neutral initiator attachment could have been the result of the hydrophobicity of the initiator. The partition coefficient (log D) of a lysine side chain at pH 8.0 is −1.00. After covalent attachment of the neutral initiator, the log D value of the new product rose to 1.82. […]

[2] = target: α-chymotrypsin (CT) from bovine pancreas, CT-neutral initiator (CT(N)) (Bos taurus, UniProt P00766); assay: Michaelis-Menten kinetics, Suc-AAPF-pNA hydrolysis, CT-neutral initiator; type: biochemical; settings: pH 8, 37° C.; CT-neutral initiator vs native CT
Procedure: as §1, with “Scientific. […]” for “Scientific.”
as §2, with “Substrate (0-20 mg/mL in DMSO, 30 μL) was added to a 1.5 mL cuvette with sodium phosphate buffer (pH 8, 100 mM). Native CT, CT-initiators, and CT-polymers (0.1 mg/mL protein, 4 μM, 10 μL) was added to the cuvette with substrate and buffer.” left out, “GraphPad. […]” for “GraphPad.”

[3] = target: α-chymotrypsin (CT) from bovine pancreas, CT-mixed initiator (average of 9 neutral and 5 positive initiators per CT) (Bos taurus, UniProt P00766); assay: Michaelis-Menten kinetics, Suc-AAPF-pNA hydrolysis, CT-mixed initiator; type: biochemical; settings: pH 8, 37° C.
Procedure: as §1
as §2, with “Native CT, CT-initiators, and CT-polymers (0.1 mg/mL protein, 4 μM, 10 μL) was added to the cuvette with substrate and buffer.” left out, “GraphPad. […]” for “GraphPad.”

[4] = target: α-chymotrypsin (CT) from bovine pancreas, CT-neutral initiator-pCBMA (Bos taurus, UniProt P00766); assay: Michaelis-Menten kinetics, Suc-AAPF-pNA hydrolysis, CT-neutral initiator-pCBMA; type: biochemical; settings: pH 8, 37° C.
Procedure: as §1, with “Scientific. […]” for “Scientific.”
(§3) CT-pCBMA and pSMA conjugate synthesis: A solution of monomer (230 mg for CBMA and 246 mg for SMA, 1.0 mmol respectively) and CT-initiator (23 mg for neutral and 25 mg for positive initiator, 10 μmol of initiator) in 100 mM sodium phosphate (20 mL, pH 7) was sealed and bubbled with nitrogen gas in an ice bath for 30 minutes. […] Conjugate CT content was determined by BCA assay as described elsewhere (Lee et al. 2005, supra). […]
(§4) CT: N-succinyl-Ala-Ala-Pro-Phe-p-nitroanilide (Suc-AAPF-pNA; SEQ ID NO:1) was used as a substrate for CT. […] Michaelis-Menten parameters were determined using nonlinear curve fitting of initial hydrolysis rate versus substrate concentration in GraphPad. […]

[5] = target: α-chymotrypsin (CT) from bovine pancreas, CT-positive initiator-pSMA (Bos taurus, UniProt P00766); assay: Michaelis-Menten kinetics, Suc-AAPF-pNA hydrolysis, CT-positive initiator-pSMA; type: biochemical; settings: pH 8, 37° C.; CT-positive initiator-pSMA vs CT-neutral initiator-pSMA
Procedure: as §1, with “Scientific. […]” for “Scientific.”
as §3, §4

[6] = target: α-chymotrypsin (CT) from bovine pancreas, CT-positive initiator-pCBMA (Bos taurus, UniProt P00766); assay: Michaelis-Menten kinetics, Suc-AAPF-pNA hydrolysis, CT-positive initiator-pCBMA; type: biochemical; settings: pH 8, 37° C.
Procedure: as §1, with “Scientific. […]” for “Scientific.”
as §3, §4

[7] = target: α-chymotrypsin (CT) from bovine pancreas, CT-positive initiator (CT(+)) (Bos taurus, UniProt P00766); assay: Michaelis-Menten kinetics, Suc-AAPF-pNA hydrolysis, CT-positive initiator; type: biochemical; settings: pH 8, 37° C.; CT-positive initiator vs native CT
Procedure: as §1, with “Scientific. […]” for “Scientific.”
as §2, with “Substrate (0-20 mg/mL in DMSO, 30 μL) was added to a 1.5 mL cuvette with sodium phosphate buffer (pH 8, 100 mM). Native CT, CT-initiators, and CT-polymers (0.1 mg/mL protein, 4 μM, 10 μL) was added to the cuvette with substrate and buffer.” left out, “GraphPad. […]” for “GraphPad.”

[8] = test system: Uricase from Candida sp., neutral initiator (N)-pSMA; assay: Michaelis-Menten kinetics, uric acid oxidation, uricase (N)-pSMA; type: biochemical; settings: pH 8.5, 37° C.
Procedure: as §1
(§5) Uricase: 200 μL of NHS-functionalized ATRP initiator solution in DMSO (100 μmol, 34 mg for neutral and 52 mg for positive initiator, respectively) was added to Uricase solution (20 mg of […] Uricase in 20 mL of 100 mM phosphate (pH 7.0)) and stirred at room temperature for 2 hours. […] The concentration of Uricase initiator conjugates was determined using a Micro BCA Assay Kit (ThermoFisher Scientific).
as §3
(§6) Uricase: Uric acid (0-400 μL of 300 μM in 50 mM sodium tetraborate (pH 8.5)) was mixed with 50 mM sodium phosphate (990-580 μL, pH 8.5). […] The initial rate was monitored by recording the decreasing in absorbance as 290 nm using an UV-VIS absorbance spectrometer with a temperature controlled cell folder at 37° C. Michaelis-Menten parameters were determined by nonlinear curve fitting of initial rate versus substrate concentration plots using Prism 7 software (GraphPad).

[9] = test system: Uricase from Candida sp., neutral initiator (N)-pCBMA; assay: Michaelis-Menten kinetics, uric acid oxidation, uricase (N)-pCBMA; type: biochemical; settings: pH 8.5, 37° C.
Procedure: as §1, §5, §3, §6

[10] = test system: Uricase from Candida sp., positive initiator (+)-pSMA; assay: Michaelis-Menten kinetics, uric acid oxidation, uricase (+)-pSMA; type: biochemical; settings: pH 8.5, 37° C.
Procedure: as §1, §5, §3, §6

[11] = test system: Uricase from Candida sp., neutral initiator (N); assay: Michaelis-Menten kinetics, uric acid oxidation, uricase-neutral initiator; type: biochemical; settings: pH 8.5, 37° C.
Procedure: as §1
(§7) Uricase: 200 μL of NHS-functionalized ATRP initiator solution in DMSO (100 μmol, 34 mg for neutral and 52 mg for positive initiator, respectively) was added to Uricase solution (20 mg of […] Uricase in 20 mL of 100 mM phosphate (pH 7.0)) and stirred at room temperature for 2 hours. Uricase-initiator conjugates were dialyzed in 25 mM sodium phosphate (pH 7.0) using a 25 kDa molecular cutoff dialysis tube in a refrigerator for 24 hours and then lyophilized. The concentration of Uricase initiator conjugates was determined using a Micro BCA Assay Kit (ThermoFisher Scientific).
(§8) Uricase: Uric acid (0-400 μL of 300 μM in 50 mM sodium tetraborate (pH 8.5)) was mixed with 50 mM sodium phosphate ([…], pH 8.5). Native, initiator and polymer conjugate solution (10 μL, 20 μM of Uricase) was added to the substrate solution. The initial rate was monitored by recording the decreasing in absorbance as 290 nm using an UV-VIS absorbance spectrometer with a temperature controlled cell folder at 37° C. Michaelis-Menten parameters were determined by nonlinear curve fitting of initial rate versus substrate concentration plots using Prism 7 software (GraphPad).

[12] = test system: Uricase from Candida sp., positive initiator (+); assay: Michaelis-Menten kinetics, uric acid oxidation, uricase-positive initiator; type: biochemical; settings: pH 8.5, 37° C.
Procedure: as §1, §7, §8

[13] = test system: Uricase from Candida sp., native; assay: Michaelis-Menten kinetics, uric acid oxidation, native uricase; type: biochemical; settings: pH 8.5, 37° C.
Procedure: as §1, §8

[14] = test system: Uricase from Candida sp., positive initiator (+)-pCBMA; assay: Michaelis-Menten kinetics, uric acid oxidation, uricase (+)-pCBMA; type: biochemical; settings: pH 8.5, 37° C.
Procedure: as §1, §5, §3, §6

α-chymotrypsin (CT) from bovine pancreas (type II), native (Bos taurus)
Km [1]: 107 ± 5 µM
kcat [1]: 26.6 ± 0.3 s⁻¹
kcat/Km [1]: 250000 ± 10000 M⁻¹ s⁻¹

C[C@H](NC(=O)CCC(=O)O)C(=O)N[C@@H](C)C(=O)N1CCC[C@H]1C(=O)N[C@@H](Cc1ccccc1)C(=O)Nc1ccc([N+](=O)[O-])cc1 [Suc-AAPF-pNA, N-succinyl-Ala-Ala-Pro-Phe-p-nitroanilide] (Suc-AAPF-pNA)
change in KM versus native CT [2]: decrease in KM by half
kcat [3]: 16.7 ± 0.4 s⁻¹
kcat/KM [3]: 200000 ± 10000 M⁻¹ s⁻¹
kcat/KM [4]: 300000 ± 10000 M⁻¹ s⁻¹
overall activity (kcat and KM) versus CT-neutral initiator-pSMA [5]: ~20 fold
kcat/KM ([6]; CT-positive initiator-pCBMA): 420000 ± 20000 M⁻¹ s⁻¹
overall catalytic efficiency versus native CT ([6]; CT-positive initiator-pCBMA vs native CT): nearly double that of native CT
change in KM versus native CT [7]: decrease in KM by half

O=c1[nH]c(=O)c2[nH]c(=O)[nH]c2[nH]1 [uric acid]
KM [8]: undetectable
kcat [8]: undetectable
kcat/KM [8]: undetectable
KM [9]: undetectable
kcat [9]: undetectable
kcat/KM [9]: undetectable
KM [10]: undetectable
kcat [10]: undetectable
kcat/KM [10]: undetectable
Km [11]: 119 ± 9.7 µM
kcat [11]: 0.18 ± 0.01 s⁻¹
kcat/KM [11]: 2000 ± 600 M⁻¹ s⁻¹
Km [12]: 25.4 ± 1.4 µM
kcat [12]: 2.14 ± 0.04 s⁻¹
kcat/KM [12]: 84000 ± 5000 M⁻¹ s⁻¹
Km [13]: 12.9 ± 0.6 µM
kcat [13]: 3.42 ± 0.05 s⁻¹
kcat/KM [13]: 266000 ± 13000 M⁻¹ s⁻¹
Km [14]: 22 ± 7.6 µM
kcat [14]: 0.03 ± 0.003 s⁻¹
kcat/KM [14]: 1000 ± 500 M⁻¹ s⁻¹
